The term IC50 denotes the concentration that gives 50% inhibition.

Where “and” joins values, the source holds several entries; their conditions need not be identical. Identical values can stand only once. Entries after “also recorded” stand apart in the source; their conditions may differ.

The test system of one test is IFN-γ. Put plainly: IFN-γ secretion in Colo-800 / MART1 T cell co-culture (ELISA). Format: cell-based, human. The settings on record: monotherapy 50 nM; 72 hours after start of co-culture. (In general: An ELISA detects its analyte on a solid surface through an enzyme-linked reagent.)
A further test concerns the target T1, human DGKalpha (Homo sapiens, UniProt P23743).
T1 construct: made in house; host or cells: baculovirus-infected Sf9 insect cells
Put plainly: Human DGKalpha kinase activity inhibition assay (ADP-Glo). Format: biochemical. The settings on record: read-out: IC50 hDGKa. As for the experimental part:
Human DGKalpha inhibitory activity of compounds of the present invention was quantified employing the human DGKalpha kinase activity assay as described in the following paragraphs. In essence, the enzyme activity was measured by quantification of the adenosine-di-phosphate (ADP) generated as a co-product of the enzyme reaction via the “ADP-Glo™ Kinase Assay” kit from the company Promega. This detection system works as follows: In a first step the ATP not consumed in the kinase reaction is quantitatively converted to cAMP employing an adenylate cyclase (“ADP-Glo-reagent”), then the adenylate cyclase is stopped and the ADP generated in the kinase reaction converted to ATP, which subsequently generates in a luciferase-based reaction a glow-luminescence signal (“Kinase Detection Reagent”).
C-terminally FLAG-tagged, recombinant full-length human DGKalpha (expressed in baculovirus infected insect cells, purified using anti-Flag pulldown and size exclusion chromatography as described below, DGKa_hu_1) was used as enzyme. As substrate for the kinase 1,2-dioleoyl-sn-glycerol, reconstituted in octyl-β-D-glucopyranoside micelles, was used. […] Then 35 volumes of 50 mM MOPS buffer (pH 7.4) were added to yield a solution of 0.28 mM 1,2 dioleoyl-sn-glycerol and 200 mM octyl-β-D-glucopyranoside, which was aliquoted, flash-frozen in liquid nitrogen, and stored at −20° C. until use.
For the assay 50 nl of a 100-fold concentrated solution of the test compound in dimethyl sulfoxide (DMSO, Sigma) was pipetted into either a white 1536-well or a white low-volume 384-well microtiter plate (both Greiner Bio-One, Frickenhausen, Germany). […] The concentration of DGKα was adjusted depending of the activity of the enzyme lot and was chosen appropriate to have the assay in the linear range, a typical concentration is about 0.1 nM. The reaction was stopped by the addition of […] of “ADP-Glo-reagent” (1 to 1.5 diluted with water) and the resulting mixture was incubated at 22° C. for 1 h to convert the ATP not consumed in the kinase reaction completely to cAMP. […] The amount of emitted light was taken as a measure for the amount of ADP generated and thereby for the activity of the DGKα.

In another test the test system is MC38 tumor bearing mice. Put plainly: MC38 tumor bearing mice, mean tumor volume (Example 7). Format: in vivo. The settings on record: DGKzeta inhibitor A′ 3 mg/kg QD p.o., TPP-15285 5 mg/kg BIW i.p. The source says:
While the antibody administration was started on day 7 after tumor inoculation, the DGK inhibitor treatment started two days later, on day 9 after tumor inoculation. This schedule was designed to allow the efficient depletion of the Tregs by the anti-mouse CCR8 surrogate antibody before the DGK inhibitor activates the T cells. […] While the antibody administration was started on day 7 after tumor inoculation, the DGK inhibitor treatment started two days later, on day 9 after tumor inoculation. This schedule was designed to allow the efficient depletion of the Tregs by the anti-mouse CCR8 surrogate antibody before the DGK inhibitor activates the T cells. […] While the antibody administration was started on day 7 after tumor inoculation, the DGKalpha and DGKzeta inhibitor treatment started two days later, on day 9 after tumor inoculation. This schedule was designed to allow the efficient depletion of the Tregs by the anti-mouse CCR8 surrogate antibody before the DGK inhibitor activates the T cells. […] The DGKalpha and DGKzeta inhibitor treatment started on day 9 after tumor inoculation.

Test [1] has as its system EMT6 murine breast carcinoma cells. Put plainly: Syngeneic EMT6 murine breast carcinoma model (Example 4). Format: in vivo. The settings on record: EMT6 s.c. in Balb/c mice; DGKalpha inhibitor A 3 mg/kg QD, DGKzeta inhibitor A′ 5 mg/kg QD, plus isotype control 5 mg/kg Q3/4D; treatment day 8 to 23. On the procedure:
EMT6 murine breast carcinoma cells were inoculated s.c. into Balb/c mice (n=10/group). […] Q3/4D, every third or fourth day; QD, once daily. […] The following eight treatment groups are included: Polyethylene glycol 400 (PEG)/ethanol (EtOH)/water (60/10/30). • 1. Anti-PD-L1 (TPP-3911, 5 mg/kg) i.p., q3/4d • 2. […] DGKzeta inhibitor A' (5 mg/kg) p.o., q.d.+Isotype control (5 mg/kg) i.p., q3/4d • 4. […] Vehicle as described supra, q.d. Mice were assigned to a study at the age of 6-8 weeks. Animal husbandry, feeding and health conditions were according to animal welfare guidelines. EMT6 cell line was cultivated with appropriate medium and split at least 3 times before inoculation. Female Balb/c mice were inoculated subcutaneously with 5×10>5 tumor cells in a medium/matrigel mixture ratio of 1:1. After 8 days the mice were randomized, and therapeutic treatment started when tumors had reached a size of approx. 40-mm^2. Tumor size was measured using calipers determining length (a) and width (b), for results see FIG. 5. Tumor volume was calculated according to: […]

The subject of the next test is Human PBMCs. Put plainly: Activation of PBMC cells (CD25+ of CD8+ naïve T-cells, flow cytometry). Format: cell-based. As for the experimental part:
In addition to the experimental determination according to the protocol provided below, said proportion of CD25+ cells withing the CD8+ naïve T-cells was simulated according to Meyer et al., 2019, Cell Systems 8, 97-108, Feb. 27, 2019.
The relative amount of activated (CD25+) naïve CD8 T cells were analyzed by flow cytometry. Non-stimulated cells served as negative control, cells stimulated with 30 ng/ml aCD3/aCD28/IgG were used as positive control.
On the technique in general: A flow cytometer gives signals particle by particle.

Test [2] relates to MC38 syngeneic mouse tumor model. Kind of test: MC38 syngeneic mouse tumor model, different dose combination ratios (Example 5). It counts as in vivo. To be noted: 3 mg/kg p.o. q.d. each (monotherapy, or 3 mg/kg + 3 mg/kg), day 25 after tumor inoculation. The text has this: The objective of this study was to observe the effects of combination therapies with DGKzeta and/or DGKalpha inhibitors on the tumor volume in the MC38 syngeneic mouse tumor model upon different dose combination ratios. The following eight treatment groups are included: • 1. Vehicle • 2. […] Treatment was started on ~day 8 after tumor inoculation at ~80-100 mm^3 tumor volume. […] Day 25 after tumor inoculation).

[3] abbreviates: Day 0 (day 7 after tumor inoculation), DGKalpha inhibitor A 5 mg/kg QD p.o.
Where [4] appears, read: Day 4, DGKalpha inhibitor A 5 mg/kg QD p.o.
The mark [5] stands for this setting: Day 7, DGKalpha inhibitor A 5 mg/kg QD p.o.
[6] abbreviates: Day 11, DGKalpha inhibitor A 5 mg/kg QD p.o.
Setting [7] is: Day 14, DGKalpha inhibitor A 5 mg/kg QD p.o.
[8] abbreviates: Day 18, DGKalpha inhibitor A 5 mg/kg QD p.o.

T1 sequence (P23743 whole entry): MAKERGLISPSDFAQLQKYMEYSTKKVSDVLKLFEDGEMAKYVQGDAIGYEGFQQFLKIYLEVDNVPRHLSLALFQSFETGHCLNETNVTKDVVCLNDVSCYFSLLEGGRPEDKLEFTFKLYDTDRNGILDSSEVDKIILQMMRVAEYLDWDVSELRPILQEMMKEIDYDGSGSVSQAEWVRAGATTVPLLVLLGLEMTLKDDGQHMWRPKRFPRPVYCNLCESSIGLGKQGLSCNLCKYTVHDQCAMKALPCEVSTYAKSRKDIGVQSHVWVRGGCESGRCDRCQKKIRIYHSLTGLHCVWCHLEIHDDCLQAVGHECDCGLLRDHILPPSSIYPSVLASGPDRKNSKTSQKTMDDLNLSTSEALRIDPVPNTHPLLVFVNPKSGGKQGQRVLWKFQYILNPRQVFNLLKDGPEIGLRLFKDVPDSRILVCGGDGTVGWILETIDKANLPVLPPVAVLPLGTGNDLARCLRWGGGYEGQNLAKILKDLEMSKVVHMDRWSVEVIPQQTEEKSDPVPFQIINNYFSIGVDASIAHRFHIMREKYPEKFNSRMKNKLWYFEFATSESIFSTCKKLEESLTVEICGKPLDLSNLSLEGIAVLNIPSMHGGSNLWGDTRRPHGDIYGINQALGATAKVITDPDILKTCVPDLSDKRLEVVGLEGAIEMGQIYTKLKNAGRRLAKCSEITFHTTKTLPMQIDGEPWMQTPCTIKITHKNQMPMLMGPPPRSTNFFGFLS

With `COc1ccc(C(=O)c2sc(N(c3ccc(F)cc3)[C@H](C)C(N)=O)nc2N)cc1` [DGKzeta inhibitor A′, (R)-2-(N-[4-amino-5-(4-methoxybenzoyl)thiazol-2-yl]-4-fluoro-anilino)propanamide], the “increase in IFN-γ secretion” value in the test on IFN-γ was “moderate”. For the same compound, on human DGKalpha, the IC50 was greater than 3630 nM. The Mean tumor volume with MC38 tumor bearing mice (setting [3]) is recorded as 91.65 mm^3; with MC38 tumor bearing mice (setting [4]) it was 216.68 mm^3; in the test with MC38 tumor bearing mice (setting [5]) it was 480.5 mm^3; in the test with MC38 tumor bearing mice (setting [6]), 982.9 mm^3; with MC38 tumor bearing mice (setting [7]), 1448.04 mm^3; in the test on MC38 tumor bearing mice (setting [8]), 2879.9 mm^3. Further, in test [1], the tumor growth inhibition result is “only moderate tumor growth inhibitions”. Besides, the “CD25+ of CD8+ naïve T-cells, Observed” value in the test with Human PBMCs (unbound DGKai 0 nM, DGKzi 0.037 nM) is 2% and 3.2%; with Human PBMCs (unbound DGKai 0 nM, DGKzi 0.37 nM), 1.7% and 1.6% and 4.2%; in the test with Human PBMCs (unbound DGKai 0 nM, DGKzi 3.7 nM), 6% and 4.9% and 6.4%; with Human PBMCs (unbound DGKai 0 nM, DGKzi 11 nM), 15% and 10%; with Human PBMCs (unbound DGKai 0 nM, DGKzi 37 nM), 29% and 18%; in the test with Human PBMCs (unbound DGKai 0 nM, DGKzi 111 nM) it was 34% and 25% and 35%. Besides, the “CD25+ of CD8+ naïve T-cells, Observed” value in the test on Human PBMCs (unbound DGKai 0 nM, DGKzi 370 nM) was 32% and 44% and 31%. In addition, in test [2], the “inhibition of tumor growth” value is “only moderate inhibition of tumor growth”.
Take `Cc1ccc2oc(C3CCN(c4c(C(N)=O)c(=O)n(C)c5ccc(F)cc45)CC3)nc2c1` [DGKalpha inhibitor A, 6-fluoro-1-methyl-4-[4-(5-methyl-1,3-benzoxazol-2-yl)piperidin-1-yl]-2-oxo-1,2-dihydroquinoline-3-carboxamide]: in the test on IFN-γ, the “increase in IFN-γ secretion” value is “slight”. Moreover, the IC50 at human DGKalpha came out at 0.25 nM. Moreover, the Mean tumor volume with MC38 tumor bearing mice (setting [3]) is 91.74 mm^3; with MC38 tumor bearing mice (setting [4]), 216.59 mm^3; in the test with MC38 tumor bearing mice (setting [5]), 483.4 mm^3; in the test with MC38 tumor bearing mice (setting [6]), 1057.04 mm^3; in the test with MC38 tumor bearing mice (setting [7]) it was 1585.28 mm^3; in the test with MC38 tumor bearing mice (setting [8]), 2961.81 mm^3. The tumor growth inhibition result in test [1] is listed as “only moderate tumor growth inhibitions”. Besides, the “CD25+ of CD8+ naïve T-cells, Observed” value with Human PBMCs (unbound DGKai 0.024 nM, DGKzi 0 nM) is 4.1% and 3.1% and 12%; with Human PBMCs (unbound DGKai 0.24 nM, DGKzi 0 nM), 3.4% and 5.1% and 6.4%; in the test on Human PBMCs (unbound DGKai 2.4 nM, DGKzi 0 nM), 8.3% and 2.1% and 5%; in the test with Human PBMCs (unbound DGKai 24 nM, DGKzi 0 nM), 6.8% and 5.4% and 7.3%; in the test with Human PBMCs (unbound DGKai 72 nM, DGKzi 0 nM) it was 9% and 6.7% and 12%. In addition, in test [2], the “inhibition of tumor growth” value is given as “only moderate inhibition of tumor growth; also recorded: no single agent activity”.

The record behind these values is patent publication US20260232652A1, “COMBINATIONS OF DGK (DIACYLGLYCEROL KINASE) INHIBITORS” (priority 2023, published 2026).
